Results on 2 molecules are retold here after US20050171084A1, “Methods of treatment with lxr modulators” (priority 2002, published 2005).

What all share (assay type): cell-based, mouse
Data set [1] relates to Murine astroglia. The data set is described as follows: Cholesterol efflux from astrocytes. The conditions noted are these: basal efflux, standard deviation in parentheses, * p<0.05. The method, then:
Murine astroglia were obtained from postnatal day 1 pups. Briefly, pups were decapitated, their brains removed, and the cerebral cortices prepared as described previously (45), except that astrocyte plating media was used (Dulbecco's modified eagle media [DMEM] containing 4 mg/ml glucose, 5% FBS and 5% HS [GibcoBRL or Irvine Scientific], 100 U/ml penecillin/100 μg/ml streptomycin, 25 mM HEPES, and 2-4 mM glutamine). Glia were grown in T75 flasks at a density of approximately 2 brains per flask. Cells were fed once weekly by complete media exchange in maintenance media (DMEM containing 4.5 mg/ml glucose, 10% FBS, 100 U/ml penecillin/100 μg/ml streptomycin, 25 mM HEPES, and 6 mM glutamine). By visual inspection, these cultures were nearly entirely astroglial with <1% contamination with microglia. After 7-14 days in vitro, cells were collected by trypsinization, counted in a hemacytometer, and plated into 6-well plates at 50-100,000 cells per well in maintenance media. […]
(§1) Cholesterol efflux assays were performed as described elsewhere (24) with some modifications. […] Two hundred microliters of the culture media supernatant and 200 μl of the cell extract were counted for tritium in 2 ml Packard Ultima Gold Scint. […] Efflux is expressed as percent of the total radiolabeled cholesterol pool present in the cultures.

Data set [2] relates to Primary murine neuronal cultures. Nature of the data set: Cholesterol efflux from neurons. The note with it: standard deviation in parentheses. As for the experimental part: Primary murine neuronal cultures were prepared from C57 B1/6 mice essentially as described elsewhere (23). In brief, embryonic day 18 fetuses were collected by caesarian section, their brains removed and the cerebral cortices dissected from the rest of the brain. The tissue was rinsed during these steps several times in Ca^2+- and Mg^2+-free Hank's balanced salt solution (HBSS, containing 1 mM HEPES, GIBCO). After the meninges were removed with forceps, the tissue was minced and incubated for 15 minutes at 37° C. in 0.25% trypsin (Sigma) in HBSS. The tissue was then washed twice in HBSS and twice in neuronal plating media (minimal essential media [MEM] containing 3 mg/ml glucose, 5% fetal bovine serum [FBS; GibcoBRL], 5% horse serum [HS; GibcoBRL], 100 U/ml penicillin/100 μg/ml streptomycin [Irvine Scientific] and 2 mM glutamine [Irvine Scientific]) to which 10 μg/ml DNAseI (Sigma) had been added. […] The resulting cell pellet was resuspended in plating media, and trypan blue-excluding surviving cells were counted in a hemacytometer. […]
as §1

For data set [3], the system named is ABCG1. Nature of the data set: ABCG1 gene expression in primary neuron cultures (QRT-PCR). The conditions noted are these: Neurons. As for the experimental part: (§2) Total RNA was isolated from tissue and cell culture samples using TRIzol reagent (GibcoBRL). Briefly, tissue samples were thawed directly in 1 ml Trizol/50 mg tissue and homogenized with a polytron. To facilitate recovery of nucleic acid, 100 μg glycogen (Ambion) was added. Cultured cells were lysed in 1 ml Trizol containing 100 μg glycogen per well. Samples were then extracted in chloroform and spun at 4° C. at 11,000×g for 15 min. The aqueous phase was collected and the RNA was precipitated with the addition of isopropanol. The samples were then spun at 11,000×g at 4° C. for 15 min, the pellet washed in 75% ethanol, dried, and dissolved in water. Samples were stored at −70° C. until use.
(§3) Total RNA samples were diluted to 100 μg/ml and treated with 40 units/ml […] DNAse-I (Ambion) for 30 min at 37° C. followed by inactivation at 75° C. for 5 min. Samples were quantitated by spectrophotometry or with the RiboGreen assay (Molecular Probes) and diluted to a concentration of 10 ng/μl. […] In this system, the probe is degraded by Taq polymerase during the amplification phase, releasing the fluorescent tag from its quenched state; amplification data is expressed as the number of PCR cycles required to elevate the fluorescence signal beyond a threshold intensity level. […]

Data set [4] has as its system SREBP-1c. Nature of the data set: SREBP-1c gene expression in primary astrocyte cultures (QRT-PCR). The conditions noted are these: Astrocytes. As for the experimental part:
as §2, §3

Data set [5] deals with SREBP-1c. The data set is described as follows: SREBP-1c gene expression in primary neuron cultures (QRT-PCR). The conditions noted are these: Neurons. As for the experimental part: as §2, §3

In the case of `O=C(O)Cc1cccc(OCCCN(Cc2cccc(C(F)(F)F)c2Cl)CC(c2ccccc2)c2ccccc2)c1` [Example 1, 2-(3-{3-[[2-Chloro-3-(trifluoromethyl)benzyl](2,2-diphenylethyl)amino]propoxy}-phenyl)acetic Acid], the “Cholesterol efflux as a percentage of total [3H] cholesterol” value in data set [1] is reported as 4.722 (0.783)* %; in data set [2], 1.252 (0.179) %. The “ABCG1 expression normalized to vehicle-treated group (fold induction)” value in data set [3] amounted to 2.8. For the same molecule, the “SREBP-1c expression normalized to vehicle-treated group (fold induction)” value in data set [4] is reported as 13.9; in data set [5] it was 3.1.
Consider `O=S(=O)(c1ccccc1)N(CC(F)(F)F)c1ccc(C(O)(C(F)(F)F)C(F)(F)F)cc1` [Example T0901317, N-(2,2,2-trifluoroethyl)-N-[4-(2,2,2-trifluoro-1-hydroxy-1-trifluoromethyl-ethyl)-phenyl]-benzenesulfonamide], for which the “Cholesterol efflux as a percentage of total [3H] cholesterol” value in data set [1] is given as 4.370 (0.561)* %; in data set [2], 1.427 (0.031) %. Besides, in data set [3], the “ABCG1 expression normalized to vehicle-treated group (fold induction)” value stood at 3.1. In addition, the “SREBP-1c expression normalized to vehicle-treated group (fold induction)” value in data set [4] is reported as 20.2; in data set [5] it was 3.1.
